SMILES | melting point [°C]
ClCCCOc1ccc(SCCCCl)cc1 | 112
CC(C)Oc1c(C(N)=O)oc2ccc(OCc3ccccc3)cc12 | 158 to 160
CC(=O)Nc1ccc(NC(C)=O)c2c1C(=O)c1ccccc1C2=O | 278 to 280
COc1c(C)c(C)c(OC)c(CCCOc2ccc(CC3SC(=O)NC3=O)cc2)c1C (configuration not stated) | 111 to 113
CCOC(=O)C1=C(C)Nc2snc(CCN3CCN(c4ccccc4)CC3)c2C1c1cccc([N+](=O)[O-])c1 (single isomer, unassigned; (+)) | 148 to 149
CC(=O)N[C@@H](CSC(=O)c1ccccc1)C(=O)NCCSC(=O)C(C)(C)C | 133 to 134
CN(C)Cc1ccc2cc(NC(=O)c3ccc(-c4ccc(Cl)cc4)cc3)ccc2n1 | 219 to 221
Nc1cccc(NC(=O)Nc2ccc(N(CCCl)CCCl)cc2)c1 | 182 to 183
Nc1nc2ccccc2c2c1ncn2CCOCC#Cc1ccc(Oc2ccccc2)cc1 | 146 to 148
COC(=O)C(C)(C)Nc1cc(Cl)ccc1[N+](=O)[O-] | 87 to 89
CCOC(=O)CCCCc1ccc(OCc2nc(-c3ccccc3)oc2C)cc1 | 57 to 58
CCOC(=O)c1cc(CC)sc1Nc1ccc(C(F)F)cc1[N+](=O)[O-] | 88 to 90
CCc1nc2cc(/C=C/C(=O)NO)c(F)cc2c(=O)n1CCc1ccccc1 | 219 to 221
O=C1c2c(c(=O)n3nc(-c4ccccc4)cc3n2Cc2ccccc2)CN1c1ccccc1 | 271 to 272
CCCCCCC[C@H](CC(=O)OC(C)(C)C)C(=O)N1C(=O)OC[C@@H]1C(C)C | 49 to 51
CCCCC(=O)Nc1ccc(Cl)c(-n2nc(CCCC)c(Cc3ccc(-c4ccccc4S(=O)(=O)NC(=O)c4ccccc4Cl)cc3)c2C(=O)O)c1 | > 110
CN(Cc1ccccc1)c1nc(N)nc(-c2cc(Cl)ccc2Cl)n1 | 163 to 164
COC(=O)c1ccc(Sc2ccc(O)cc2)cc1 | 184 to 186
O=C(NN1CCN(CCc2c[nH]c3ccccc23)CC1)c1ccc(O)cc1 | 190 to 192
CCCCCc1ccc(C(=O)CCCCC(=O)O)cc1 | 84 to 86
CCNC(=O)Oc1cccc(NC(=O)C=C(C)OC)c1 | 183
COc1ccc(-n2nc(CBr)cc2-c2ccc(Cl)cc2)cc1 | 88 to 90
CN(C)C(=O)Sc1ccc(C(=O)c2ccccc2C#N)cc1 | 112
CCCCCCCNCc1cccc(OCCCNc2nc(N)nn2C)c1 | 64 to 65
CCOC(=O)c1ccc(NC(=O)C=C(c2ccc(Cl)cc2)c2ccc(Cl)cc2)cc1 | 207 to 209

SMILES | melting point [°C]
CCc1nc(N)nc(N)c1N1CCNCC1 | 204 to 207
N=c1sc2cc(OC(F)(F)F)ccc2n1CCSCc1ccccn1 | 125
O=[N+]([O-])c1ccc2c(c1)OC(CO)CO2 (configuration not stated) | 132 to 135
CCCCCCCCCCC(O)CNC (configuration not stated) | 56 to 57
CNN(NC)C(=O)Nc1cccc2c1C(=O)c1c-2n[nH]c1-c1ccc(OC)cc1 | > 300
CCCCCCCCS(=O)(=O)Nc1cc(C(=O)Nc2ccccc2)ccc1OC | 154 to 155
Nc1ccccc1CSc1ncc(C(F)(F)F)cc1Cl | 98 to 102
CC(=O)OCc1nc2cc(Cl)c(C)cc2c(=O)[nH]1 | 220 to 225
O=C(CC[C@H]1CC[C@H](Nc2ncc3ncnc(Nc4ccc(F)c(Cl)c4)c3n2)CC1)N1CCOCC1 | 186 to 191
CCOC(=O)c1c2n(c3c(F)c(N4CCC(N(C)C)C4)c(F)cc3c1=O)C(C)S2 (configuration not stated) | 165 to 168
Cc1nc2c3c(ccc2[nH]1)[C@H]1OCCO[C@@H]1[C@@H](c1ccccc1)O3 | 260
CC(C)c1cccc(C(C)C)c1NC(=O)CSCCCCCCCCCCCCN1CCN(c2ccccc2)CC1 | 76.5 to 77.5
CCN(CC)C(=O)c1c(S(N)(=O)=O)cc(OC)c(OC)c1C(C)C | 138 to 140
c1csc(-c2noc(COc3ccc(CCCn4ccnc4)cc3)n2)c1 | 118 to 119
O=C(O)C(=O)CC(=O)c1cccn1CCCCc1ccccc1 | 119 to 121
CCCCCCCCCCCCCCCc1cc2cc(C(=O)O)ccc2n1C | 127 to 128
Cc1ccc([C@@H](C)NCc2ccc(O)cc2)cc1 | 114 to 116
COC(=O)C(C)(C)CCCCCOc1ccc(N2C(=O)c3ccccc3C2=O)cc1 | 82 to 83
CC(C)(C)c1onc(NC(=O)C2CC2)c1Cl | 130 to 131
COc1cc(OC)cc(C(O)C(=O)c2ccccc2)c1 (configuration not stated) | 98 to 104
O=C1C=CC(=C(c2ccc3ccccc3c2)c2ccc3ccccc3c2)O1 | 138 to 140
CC(C)n1c(=O)nc(-c2ccc3c(c2)OCO3)c2cc3c(cc21)OCCO3 | 229 to 231
CCCOc1cc(C)cnc1CCCCNc1ncc(Cc2ccc(C)nc2)c(=O)[nH]1 | 81 to 85
COC(=O)c1cc2cc(NC(=O)c3cc4cc(N)ccc4[nH]3)ccc2[nH]1 | > 350

Other lines, results leading:

melting point [°C] | SMILES
47 | CCCC(=O)CN1CCC(CCN2CCN(c3cccc(C)c3C)CC2)CC1
145 to 146 | CCOC(=N)c1c(O)ccc2ccccc12
127 to 130 | CCC(=O)N1CCC(NC(=O)Nc2ccccc2F)CC1
250 to 251 | COC(=O)c1cc(NC(=O)C2CCCCC2)c2cc(Cc3ccc(F)cc3)cnc2c1O
168 to 170 | COc1ccc(CCC(=O)Nc2nc3c(s2)CCN(CC=Cc2cccnc2)CC3)cc1
136 | CN1C(=O)Cc2cc(CCCl)ccc21
123 to 128 | COc1ccc2c(c1)S(=O)(=O)N=CN2CCF
150 to 151 | CC(C)CCn1cc(C2CCN(CCOc3ccccc3C(=O)O)CC2)c2ccccc21
105 to 106 | CCOC(=O)CN1CCc2c(sc(N)c2C(=O)c2ccc(Cl)cc2)C1
43 to 45 | CCOC(=O)c1conc1-c1ccc(Cl)cc1
85 to 86 | O=C(OCc1ccccc1)c1ccc(N2CCOCC2)cc1
> 200 | O=C1CCN(c2ccc(C=C3SC(=O)NC3=O)cc2F)CC1
182 to 183 | CCCn1nc2c(N)nc3ccccc3c2c1CC(C)(C)NC(C)=O
62 to 64 | CC(=O)c1nn2c3c(cccc13)CCC2
207 to 208 | CCCc1cccc2c(/C=C(\C)C(=O)O)cc(OC)c(OC(C)=O)c12
198 to 199 | O=S(=O)(c1ccc(O)cc1)c1ccc(O)c2ccccc12
161 | COC(=O)C1Cc2cccc(OC)c2N1S(=O)(=O)c1ccc(I)cc1 (configuration not stated)
194 to 197 | Cn1ncc(C(=O)N2CCOCC2)c1C(=O)Nc1ccn2nc(N3CCCC3)nc2c1
173 to 176 | CNc1nc(N2CCN(C)CC2)nc2ccc(Cl)cc12
118 to 120 | C=C(C)Cn1c(=O)n(C)c(=O)c2c(Sc3ccccn3)n(Cc3cccc4ccccc34)nc21
139 to 140 | CC(C)(C)OC(=O)N1Cc2c(Br)sc(-c3ccccc3)c2C1
315 to 319 | COc1cc(C(=O)O)ccc1-c1nc2cc3c(cc2[nH]1)NC(=O)C3(C)C
131 to 132 | CC(=O)c1ccc(Nc2cccc(-c3cncnc3)c2)c([N+](=O)[O-])c1

Reference: a melting point compilation (Tetko et al.; mined from patent text by program, amines drawn as free bases though some values may be those of a salt)
